Format in all cases: cell-based
Assay [1] deals with bovine cells. Nature of the assay: Collagen production under different concentrations of vitamin C, bovine cells (FIG. 7A, 7B). The note with it: seeding density 40,000 or 70,000 cells/well, 96 well plate. The text has this: (§1) In another example, a collagen detection method using a dual dye assay is described and depicted in FIG. 4. This method measures collagen content of samples using dyes in order to estimate collagen production of adherent cells in cultures without extracting the collagen. Samples may include bovine derma primary fibroblast cell lines or BJ human fibroblast/primary cells, among others not explicitly listed herein. Materials utilized in the method of FIG. 4 include: about 70% ethanol, sterile water, picric acid (or 2,4,6-trinitrophenol), about 0.1% Fast Green FCF solution in saturated picric acid, about 0.4% Fast Green FCF solution and about 0.11% Sirius Red in the saturated picric acid, and about 0.1% NaOH in methanol. The Fast Green FCF dye is used for total protein and the Sirius Red dye is used for collagen content determination. Equipment utilized with the method of FIG. 4 includes a laminar flow cabinet, a spectrophotometer, and a pipette. A process step 406 follows the process step 404 and includes adding a saturated solution of picric acid in distilled water containing a first amount of the Fast Green dye. In examples, the first amount of the Fast Green dye is about 0.01%. […] A process step 420 follows the process step 418 and includes utilizing the spectrophotometer to measure an absorbance at 540 nm and 630 nm. […]

A further assay has as its system human KEL-FIB cell line. In words: Factor supplementation, Sircol Collagen Assay, human KEL-FIB cell line. To be noted: for collagen production: 3-10 days with factor. How it is done: (§2) In this embodiment, cells were seeded at approximately 3500-4500 cells per well of a 48 well-plate and were allowed to settle for about 48 hours before adding the factor. After about 48 hours, spent media was removed and replaced with growth media supplemented with the factor of interest. Cells continued to grow for about 3-10 days following initial introduction of the factor and a collagen content was quantified with a Sircol™ Collagen Assay. Additionally, experiments were conducted with and without media/factor replenishment about every 48-72 hours.

The next assay concerns bovine cell lines. Nature of the assay: Factor supplementation, Sircol Collagen Assay, commercially available bovine cell lines. To be noted: for collagen production: commercially available bovine cell lines, 3-10 days with factor. How it is done: as §2
The test system of another assay is human cells. In words: Collagen production under different concentrations of vitamin C, human cells (FIG. 7C, 7D). To be noted: seeding density 40,000 or 70,000 cells/well, 96 well plate.
Excerpt: as §1

In another assay the test system is porcine cell line. In words: Factor supplementation, Sircol Collagen Assay, commercially available porcine cell line. To be noted: 3-10 days with factor. How it is done:
as §2

In a further assay the test system is various cell types. Nature of the assay: Effects of ginseng, palmitoleic acid and spirulina on collagen production in various cell types (FIG. 8-10). The text has this: (§3) Moreover, FIG. 8 depicts a graph showing effects of ginseng on collagen production in various cell types. FIG. 8 has an x-axis 802 associated with a cell type and a ginseng concentration in μg/mL and a […] measuring a collagen concentration 806 and a protein concentration 808.
(§4) Further, FIG. 9 depicts a graph showing effects of palmitoleic acid on collagen production in various cell types. FIG. 9 has an x-axis 902 associated with a cell type and a palmitoleic acid concentration in μg/mL and a y-axis 904 measuring a collagen concentration 906 and a protein concentration 908.
(§5) FIG. 10 depicts a graph showing effects of a spirulina extract on collagen production in various cell types. FIG. 10 has an x-axis 1002 associated with a cell type and a spirulina extract concentration in μg/mL and a y-axis 1004 measuring a collagen concentration 1006 and a protein concentration 1008.
(§6) However, a total protein content is increased in bovine cells.

For assay [2], the system named is bovine cells. Nature of the assay: Effects of ginseng, palmitoleic acid and spirulina on total protein content in bovine cells (FIG. 8-10).
Excerpt: as §3, §4, §5, §6

The structures appear in SMILES notation.

`O=C1O[C@H]([C@@H](O)CO)C(O)=C1O` [vitamin C]: the “concentration of vitamin C at which the highest collagen concentration resulted” value with bovine cells [1] and in the assay on human cells was 10 to 100 mg/mL each time. The “increase of collagen production” value in the assay with human KEL-FIB cell line was “about 50%”; with bovine cell lines (bovine cell lines) it was 28-36%. Besides, the collagen production entry with human KEL-FIB cell line, in the assay with bovine cell lines and in the assay with porcine cell line was “increased” each time.

As to `CCCCCC/C=C\CCCCCCCC(=O)O` [palmitoleic acid], the “effect on collagen production” value in the assay on various cell types was “do not have a large effect”. For the same compound, the total protein content result with bovine cells [2] was “increased”.

Consider `O=S(=O)([O-])[O-].[Zn+2]` [zinc sulfate], for which the collagen production entry in the assay on human KEL-FIB cell line, with bovine cell lines and in the assay on porcine cell line was “increased” in each case.

(Values after patent US20220112267A1, “PRODUCE AND ISOLATE AND/OR EXTRACT COLLAGEN AND/OR GELATIN FROM ANIMAL CELL LINES AND/OR TISSUE EXPLANTS” (Jellatech, Inc., priority 2020, published 2022).)
